Source: patent publication US20220340665A1, “INHIBITOR AGAINST EXPRESSION OF IMMUNE CHECKPOINT MOLECULE” (RENASCIENCE INC., priority 2019, published 2022)

How the values were obtained:
[1] = test system: cancer cell line (B16F10); assay: PD-L1 expression induced by rPAI-1 in B16F10 with STAT3 inhibitor (Experimental Example 18); format: cell-based, mouse; conditions: simultaneous addition of rPAI-1 and STAT3 inhibitor
Description: In order to clarify the mechanism of induction of PD-L1 expression by PAI-1, rPAI-1 was added to a culture medium of a cancer cell line (B16F10); after culturing for 6 hours, the cells were collected, and the degree of phosphorylation of JAK/STAT molecules was analyzed.
Further, FIG. 18(B) confirmed that the increase in the PD-L1 expression induced by rPAI-1 was suppressed by simultaneous addition of rPAI-1 and a STAT3 inhibitor (BP-1-102, C188-9).

[2] = target: T1, human PAI-1 (Homo sapiens, UniProt P05121); assay: PAI-1 inhibitory activity, t-PA with S-2288 chromogenic substrate (Reference Experimental Example 1); conditions: system without compound after 30 minutes = 100%
T1 sequence (P05121 24-402): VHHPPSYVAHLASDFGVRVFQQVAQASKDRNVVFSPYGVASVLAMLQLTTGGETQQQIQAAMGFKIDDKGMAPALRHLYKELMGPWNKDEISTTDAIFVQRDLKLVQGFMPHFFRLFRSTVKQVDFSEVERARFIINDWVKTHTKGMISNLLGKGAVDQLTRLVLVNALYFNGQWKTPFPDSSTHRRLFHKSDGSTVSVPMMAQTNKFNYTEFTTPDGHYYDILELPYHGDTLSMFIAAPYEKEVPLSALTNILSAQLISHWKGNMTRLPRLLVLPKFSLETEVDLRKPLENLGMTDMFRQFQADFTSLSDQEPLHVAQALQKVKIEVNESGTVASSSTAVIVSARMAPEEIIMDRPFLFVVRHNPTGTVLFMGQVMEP
Description: Subsequently, human-derived tissue plasminogen activator (t-PA) (manufactured by American Diagnostica, Inc. (USA); the same applies hereinafter) adjusted to 0.35 pmol/μL was added thereto, and the mixture was further incubated at 37° C. for 15 minutes.

[3] = target: T1, human PAI-1; assay: PAI-1 inhibitory activity, t-PA with Spectrozyme t-PA chromogenic substrate (Reference Experimental Example 2); format: biochemical; design: purchased Molecular Innovations, Inc. (USA)
Description: Subsequently, human-derived tissue plasminogen activator (t-PA) (manufactured by American Diagnostica, Inc. (USA); the same applies hereinafter) adjusted to 0.05 pmol/μL was added thereto, and the mixture was further incubated at 37° C. for 60 minutes. Then, 0.25 mM of Spectrozyme t-PA synthetic substrate (manufactured by American Diagnostica, Inc. (USA); the same applies hereinafter), which is a chromogenic substrate, was added. […]
Free p-nitroaniline removed from the chromogenic substrate (Spectrozyme t-PA) by t-PA action was measured using a spectrophotometer at an absorbance of 405 nm at 20-minute intervals, for 120 minutes.

[4] = Tables 5 to 7, first value column, head prints no concentration
[5] = Tables 5 to 7, second value column, head prints no concentration
[6] = compound 10 μm (head), system without compound after 120 minutes = 100%
[7] = compound 25 μm (head), system without compound after 120 minutes = 100%

Row | Compound | PAI-1 activity % [3, 4] [%] | PAI-1 activity % [3, 6] [%] | PAI-1 activity % [3, 7] [%] | other results
1 | COc1ccc(S(=O)(=O)Nc2cc(-c3c(O)ccc4ccccc34)c(O)c3ccccc23)cc1 [Example C188-9] |  |  |  | increase in the PD-L1 expression induced by rPAI-1 [1]: suppressed
2 | O=C(O)c1cc(Cl)ccc1NC(=O)C1CCCN(C(=O)Cc2cccc(-c3ccoc3)c2)C1 (centres unmarked) [Example 12] |  |  |  | PAI-1 activity % ([2]; compound 20 μm (head)): 57.7%; PAI-1 activity % ([2]; compound 50 μm (head)): 15.7%
3 | CN(CC(=O)N(Cc1ccc(C2CCCCC2)cc1)c1ccc(C(=O)O)c(O)c1)S(=O)(=O)c1c(F)c(F)c(F)c(F)c1F [BP-1-102] |  |  |  | increase in the PD-L1 expression induced by rPAI-1 [1]: suppressed
4 | O=C(CCCNC(=O)c1cccc(-c2ccoc2)c1)Nc1ccc(Cl)cc1C(=O)O [Example 1] |  |  |  | PAI-1 activity % ([2]; compound 20 μm (head)): 95.5%; PAI-1 activity % ([2]; compound 50 μm (head)): 48.9%
5 | C#Cc1ccc(NC(=O)c2ccc(C3CCCCC3)cc2)c(C(=O)O)c1 [Example 95, 2-(((4-cyclohexylphenyl)carbonyl)amino)-5-ethynlbenzoic acid] | 0.3 |  |  | PAI-1 activity % [3, 5]: 80.5%
6 | 5-chloro-2-((3-(3-(furan-3-yl)phenyl)propenoyl)amino)benzoic acid [Example 36] |  | 3.7 | 95.7 | 
7 | O=C(Nc1ccc(C23CC4CC(CC(C4)C2)C3)cc1)C(=O)Nc1ccc(Cl)cc1C(=O)[O-].[Na+] [Example 106, [(([4-(adamantan-1-yl)phenyl]amino)(oxo)acetyl)amino]-5-sodium chlorobenzoate] | 26.3 |  |  | PAI-1 activity % [3, 5]: 88.4%
8 | O=C(Nc1ccc(Cl)cc1C(=O)O)C(=O)c1c[nH]c2ccc(OCc3ccccc3)cc12 [Example 57, 2-(((5-(benzyloxy)-1H-indol-3-yl)(oxo)acetyl)amino)-5-chlorobenzoic acid] |  |  | 36.6 | 
9 | 5-chloro-2-(((3-(cyclohex-1-en-1yl)phenyl)acetyl)amino)benzoic acid [Example 25] |  | 0.0 | 85.8 | 
10 | O=C(Nc1ccc(Cl)cc1C(=O)O)c1ccc(C(=O)C23CC4CC(CC(C4)C2)C3)cc1 [Example 56] |  | 0.7 | 75.8 | 
11 | O=C([O-])c1cc(Cl)ccc1NC(=O)C1CCCN(C(=O)c2cccc(-c3ccoc3)c2)C1.[Na+] (centres unmarked) [Example 11] |  |  |  | PAI-1 activity % ([2]; compound 20 μm (head)): 68.2%; PAI-1 activity % ([2]; compound 50 μm (head)): 26.1%
12 | 2-((biphenyl-4-ylcarbonoyl)amino)-5-chlorobenzoic acid [Example 71] | 2.1 |  |  | PAI-1 activity % [3, 5]: 39.6%
13 | O=C(C=Cc1ccc(C23CC4CC(CC(C4)C2)C3)cc1)Nc1ccc(Cl)cc1C(=O)O [Example 94, 2-((3-(4-(adamantan-1-yl)phenyl)prop-2-enoyl)amino)-5-chlorobenzoic acid] | 7.4 |  |  | PAI-1 activity % [3, 5]: 3.5%

More lines, main results first:

Row | PAI-1 activity % [3, 4] [%] | PAI-1 activity % [3, 6] [%] | PAI-1 activity % [3, 7] [%] | Compound | other results
14 | 30.5 |  |  | O=C(COC(c1ccccc1)c1ccccc1)Nc1ccc(Cl)cc1C(=O)O [Example 76, 5-chloro-2-(((diphenylmethoxy)acetyl)amino)benzoic acid] | 
15 |  |  | 94.6 | O=C(O)c1cc(Cl)ccc1NC(=O)c1cccc2c1Cc1ccccc1-2 [Example 38, 5-chloro-2-((9H-fluoren-1-ylcarbonyl)amino)benzoic acid] | 
16 |  | 0.1 | 22.6 | O=C(Nc1ccc(Cl)cc1C(=O)[O-])c1cccc(-c2cccc3cnccc23)c1.[Na+] [Example 66] | 
17 |  | 0.4 | 71.7 | O=C(Nc1ccc(Cl)cc1C(=O)[O-])c1cccc(-c2cccc3ncccc23)c1.[Na+] [Example 65, 5-chloro-2-(((3-(quinolin-50yl)phenyl)carbonyl)amino)sodium benzoate] | 
18 |  | 36.9 |  | COc1ccccc1-c1cccc(OCC(=O)Nc2ccc(Cl)cc2C(=O)O)c1 [Example 61, 5-chloro-2-((((2'-methoxybiphenyl-3-yl)oxy)acetyl)amino)benzoic acid] | 
19 | 6.7 |  |  | O=C([O-])c1cc(Cl)ccc1NC(=O)c1cc(-c2ccccc2)nc2ccccc12.[Na+] [Example 107, 5-chloro-2-(((2-phenylquinolin-4-yl)carbonyl)amino)sodium benzoate] | PAI-1 activity % [3, 5]: 100.0%
